# Test results reported in PMC6287892, “Design, Synthesis, and Biological Evaluation of 3-(Imidazo[1,2-a]pyrazin-3-ylethynyl)-4-isopropyl-N-(3-((4-methylpiperazin-1-yl)methyl)-5-(trifluoromethyl)phenyl)benzamide as a Dual Inhibitor of Discoidin Domain Receptors 1 and 2” (Journal of Medicinal Chemistry, 2018).
# How the values were obtained:
# [1] = Pharmacokinetic parameters in rats; assay type: in vivo; details: SD rats
# Experimental: Male SD rats weighing 180–220 g (Southern China Medical University) were utilized for the studies. The protocol was approved by the Animal Care and Use Committee, GIBH. Animals were given standard animal chow and water ad libitum in a climate-controlled room (23 ± 1 °C, 30–70% relative humidity, a minimum of 10 exchanges of room air per hour, and a 12 h light–dark cycle) for 1 week prior to experiments. The compound was dissolved in a solution containing 2% DMSO, 4% ethanol, 4% castor oil, and 90% ddH2O. The pharmacokinetic properties of the SD rats (male) were determined following iv and oral administration. Animals were randomly distributed into two experimental groups (n = 3). […] After single administration, whole blood samples (100–200 μL) were obtained from the orbital venous plexus at the following time points after dosing: 5, 10, and 30 min and 1, 2, 3, 4, 6, 8, 11, and 24 h (po) or 2, 10, and 30 min and 1, 2, 3, 4, 6, 8, 11, and 24 h (iv). Whole blood samples were collected in heparinized tubes. The plasma fraction was immediately separated by centrifugation (8000 rpm, 6 min, 4 °C) and stored at −20 °C until LC-MS analysis. The rats were humanely euthanasia by carbon dioxide 24 h after the experiment without pain. The pharmacokinetics parameters were calculated by analyzing the compound concentrations in plasma samples using the pharmacokinetic software DAS.2.0.
# Male C57BL/6 mice = assay: Acute-toxicity assay in mice; assay type: in vivo; details: 200 or 400 mg/kg by gavage
# Experimental: Male C57BL/6 mice weighing 18–20 g were randomly divided into three groups (n = 5 per group). Mice were gavage-administered 200 μL of the drug (at 200 or 400 mg/kg in physiological saline). Mice in the control group received 200 μL of physiological saline. After drug administration, body-weight changes were recorded for 7 days.
# [2] = male, rat, plasma, iv (4 mg/kg)
# [3] = male, rat, plasma, oral (20 mg/kg)
smiles,measurement,setting,value
"CC(C)c1ccc(C(=O)Nc2cc(CN3CCN(C)CC3)cc(C(F)(F)F)c2)cc1C#Cc1cnc2cnccn12 [Compound 5n, 3-(Imidazo[1,2-a]pyrazin-3-ylethynyl)-4-isopropyl-N-(3-((4-methylpiperazin-1-yl)methyl)-5-(trifluoromethyl)phenyl)benzamide]",BA,[1]; oral (20 mg/kg) vs iv (4 mg/kg),8.06%
same,AUC(0-inf),[1]; [2],798 ± 121 ng·h/mL
same,Cmax,[1]; [2],1180 ± 150 ng/mL
same,half-life,[1]; [2],2.12 ± 0.25 h
same,clearance,"[1]; male, rat, plasma, iv (4 mg/kg), read-out: CLz (converted)",85 mL/min/kg
same,AUC(0-inf),[1]; [3],322 ± 106 ng·h/mL
same,Cmax,[1]; [3],48.7 ± 18.2 ng/mL
same,Tmax,[1]; [3],1.5 ± 1.3 h
same,half-life,[1]; [3],2.08 ± 0.66 h
same,tolerability,Male C57BL/6 mice,well-tolerated
same,animal deaths and body-weight changes,Male C57BL/6 mice; 7 days,no animal deaths or obvious body-weight changes
